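Assay format: 96-well plates, 48-hour exposure. Here, GI50 denotes the concentration required for 50% inhibition of growth.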 Activity calls are given as the source filed them. Cut-off read from the data, not from the text of the source: active = GI50 up to about 1.1 µM and inactive = higher.
Tests used:
Experiment in all cases: growth of human tumour cells (NCI), 48 h
[1] = tested on: 786-0
[2] = tested on: A549
[3] = tested on: CAKI-1
[4] = tested on: EKVX
[5] = tested on: HCC 2998
[6] = tested on: HCT-116
[7] = tested on: HOP-62
[8] = tested on: HT-29
[9] = tested on: KM12
[10] = tested on: MDA-MB-231
[11] = tested on: MDA-N
[12] = tested on: Malme-3M
[13] = tested on: OVCAR-8
[14] = tested on: SF-295
[15] = tested on: SN12C
[16] = tested on: SNB-19
[17] = tested on: SNB-75
[18] = tested on: CCRF-CEM
[19] = tested on: K562
[20] = tested on: NCI-H226

Measured: GI50

CCOC(=O)C1C(c2ccc(OC)cc2)c2c(nn(-c3ccccc3)c2O)CC1(O)OCC (configuration not stated)
inactive: [1] 63.4 µM | [2] 24 µM | [3] > 100 µM | [4] 98.9 µM | [5] > 100 µM | [6] 23.7 µM | [7] > 100 µM | [8] 27.4 µM | [9] 3.4 µM | [10] 39.9 µM | [11] 8.63 µM | [12] 75.5 µM | [13] > 100 µM | [14] 1.92 µM | [15] > 100 µM | [16] 10 µM | [17] 82.4 µM

OCC1OC(n2cnc3c2NC=NC[C@H]3O)CC1O (some centres not stated)
inactive: [1] 455 µM | [18] 392 µM | [4] 489 µM | [5] 387 µM | [6] 483 µM | [7] 417 µM | [19] 469 µM | [9] 495 µM | [10] > 500 µM | [11] > 500 µM | [12] 458 µM | [20] 484 µM | [13] 489 µM | [14] 448 µM | [15] 483 µM | [16] 479 µM | [17] 337 µM

CCN(CC)CCCNc1nnc(C)c2[nH]c3ccccc3c12
inactive: [1] 18.2 µM | [2] 17.8 µM | [3] > 100 µM | [18] 4.42 µM | [4] 18.7 µM | [5] 9.95 µM | [6] 5.36 µM | [7] 7.31 µM | [8] 6.49 µM | [19] 10.1 µM | [9] 11.4 µM | [10] 11.4 µM | [11] 13.7 µM | [12] 15.1 µM | [13] 7.93 µM | [14] 20.8 µM | [15] 12.7 µM | [16] 19.3 µM | [17] 18.3 µM

N#Cc1c(-c2ccc(Cl)cc2)c2c(n(C3OC(CO)C(O)C(O)C3O)c1=S)CCC2 (configuration not stated)
inactive: [1] 30.9 µM | [2] 31.7 µM | [3] 30.2 µM | [18] 16.1 µM | [5] 19.8 µM | [6] 34.4 µM | [7] 23.6 µM | [8] 29 µM | [19] 14.7 µM | [9] 41.9 µM | [10] 36.9 µM | [11] 34.5 µM | [12] 26.2 µM | [14] > 10 µM | [15] 33.9 µM | [16] 22 µM | [17] 19.8 µM

O=C(O)c1ccc2c(c1)CC1(C2)Cc2ccccc2C1=O (configuration not stated)
inactive: [1] > 100 µM | [2] > 100 µM | [18] > 100 µM | [4] > 100 µM | [5] > 100 µM | [6] > 100 µM | [7] > 100 µM | [8] > 100 µM | [19] > 100 µM | [9] > 100 µM | [10] > 100 µM | [11] > 100 µM | [12] > 100 µM | [20] > 100 µM | [13] > 100 µM | [14] > 100 µM | [15] > 100 µM | [16] > 100 µM | [17] > 100 µM

CCCCc1ccc(-n2sc3ncccc3c2=O)cc1
inactive: [1] 9.42 µM | [2] 14 µM | [18] 2.17 µM | [4] 11.1 µM | [5] 5.35 µM | [6] 11.6 µM | [7] 11 µM | [8] 16.1 µM | [9] 13.4 µM | [10] 15.6 µM | [11] 13.9 µM | [12] 3.96 µM | [20] 7.67 µM | [13] 12.5 µM | [14] 12.6 µM | [15] 16.4 µM | [16] 21.9 µM | [17] 22.4 µM

From ChEMBL document CHEMBL1201862, “PubChem BioAssay data set” (2004)
